Assay results published in paper PMC10408569, “Recruitment of hexahydroquinoline as anticancer scaffold targeting inhibition of wild and mutants EGFR (EGFR^WT, EGFR^T790M, and EGFR^L858R)” (Journal of Enzyme Inhibition and Medicinal Chemistry, 2023).

Columns and labels:
HL-60(TB) = test: NCI-60 anticancer screening (SRB); format: cell-based; details: Homo sapiens, leukemia, one dose 10 μM, read-out: Growth Inhibition Percentage (GI %)
K-562 = test: NCI-60 anticancer screening (SRB); format: cell-based; details: Homo sapiens, K562; K-562, leukemia; one dose 10 μM; read-out: Growth Inhibition Percentage (GI %)
MOLT-4 = test: NCI-60 anticancer screening (SRB); format: cell-based; details: Homo sapiens; MOLT-4, leukemia; one dose 10 μM; read-out: Growth Inhibition Percentage (GI %)
RPMI-8226 = test: NCI-60 anticancer screening (SRB); format: cell-based; details: Homo sapiens; RPMI-8226, leukemia; one dose 10 μM; read-out: Growth Inhibition Percentage (GI %)
SR = test: NCI-60 anticancer screening (SRB); format: cell-based; details: Homo sapiens, leukemia, one dose 10 μM, read-out: Growth Inhibition Percentage (GI %)
A549/ATCC = test: NCI-60 anticancer screening (SRB); format: cell-based; details: Homo sapiens; A549/ATCC, NSC lung cancer; one dose 10 μM; read-out: Growth Inhibition Percentage (GI %)
HOP-62 = test: NCI-60 anticancer screening (SRB); format: cell-based; details: Homo sapiens; HOP-62, NSC lung cancer; one dose 10 μM; read-out: Growth Inhibition Percentage (GI %)
NCI-H226 = test: NCI-60 anticancer screening (SRB); format: cell-based; details: Homo sapiens; NCI-H226, NSC lung cancer; one dose 10 μM; read-out: Growth Inhibition Percentage (GI %)
NCI-H322M = test: NCI-60 anticancer screening (SRB); format: cell-based; details: Homo sapiens, NSC lung cancer, one dose 10 μM, read-out: Growth Inhibition Percentage (GI %)
NCI-H522 = test: NCI-60 anticancer screening (SRB); format: cell-based; details: Homo sapiens; NCI-H522, NSC lung cancer; one dose 10 μM; read-out: Growth Inhibition Percentage (GI %)
HCC-2998 = test: NCI-60 anticancer screening (SRB); format: cell-based; details: Homo sapiens; HCC-2998, colon cancer; one dose 10 μM; read-out: Growth Inhibition Percentage (GI %)
HCT-15 = test: NCI-60 anticancer screening (SRB); format: cell-based; details: Homo sapiens; HCT-15, colon cancer; one dose 10 μM; read-out: Growth Inhibition Percentage (GI %)
KM 12 = test: NCI-60 anticancer screening (SRB); format: cell-based; details: Homo sapiens, KM12; KM 12, colon cancer; one dose 10 μM; read-out: Growth Inhibition Percentage (GI %)
SW-620 = test: NCI-60 anticancer screening (SRB); format: cell-based; details: Homo sapiens; SW-620, colon cancer; one dose 10 μM; read-out: Growth Inhibition Percentage (GI %)
SF-268 = test: NCI-60 anticancer screening (SRB); format: cell-based; details: Homo sapiens; SF-268, CNS cancer; one dose 10 μM; read-out: Growth Inhibition Percentage (GI %)
SNB-19 = test: NCI-60 anticancer screening (SRB); format: cell-based; details: Homo sapiens; SNB-19, CNS cancer; one dose 10 μM; read-out: Growth Inhibition Percentage (GI %)
SNB-75 = test: NCI-60 anticancer screening (SRB); format: cell-based; details: Homo sapiens; SNB-75, CNS cancer; one dose 10 μM; read-out: Growth Inhibition Percentage (GI %)
LOX IMVI = test: NCI-60 anticancer screening (SRB); format: cell-based; details: Homo sapiens, melanoma, one dose 10 μM, read-out: Growth Inhibition Percentage (GI %)
MDA-MB-435 = test: NCI-60 anticancer screening (SRB); format: cell-based; details: Homo sapiens; MDA-MB-435, melanoma; one dose 10 μM; read-out: Growth Inhibition Percentage (GI %)
SK-MEL-2 = test: NCI-60 anticancer screening (SRB); format: cell-based; details: Homo sapiens; SK-MEL-2, melanoma; one dose 10 μM; read-out: Growth Inhibition Percentage (GI %)
SK-MEL-5 = test: NCI-60 anticancer screening (SRB); format: cell-based; details: Homo sapiens; SK-MEL-5, melanoma; one dose 10 μM; read-out: Growth Inhibition Percentage (GI %)
UACC-257 = test: NCI-60 anticancer screening (SRB); format: cell-based; details: Homo sapiens; UACC-257, melanoma; one dose 10 μM; read-out: Growth Inhibition Percentage (GI %)
OVCAR-3 = test: NCI-60 anticancer screening (SRB); format: cell-based; details: Homo sapiens; OVCAR-3, ovarian cancer; one dose 10 μM; read-out: Growth Inhibition Percentage (GI %)
OVCAR-4 = test: NCI-60 anticancer screening (SRB); format: cell-based; details: Homo sapiens; OVCAR-4, ovarian cancer; one dose 10 μM; read-out: Growth Inhibition Percentage (GI %)
OVCAR-5 = test: NCI-60 anticancer screening (SRB); format: cell-based; details: Homo sapiens; OVCAR-5, ovarian cancer; one dose 10 μM; read-out: Growth Inhibition Percentage (GI %)
OVCAR-8 = test: NCI-60 anticancer screening (SRB); format: cell-based; details: Homo sapiens; OVCAR-8, ovarian cancer; one dose 10 μM; read-out: Growth Inhibition Percentage (GI %)
SK-OV-3 = test: NCI-60 anticancer screening (SRB); format: cell-based; details: Homo sapiens; SK-OV-3, ovarian cancer; one dose 10 μM; read-out: Growth Inhibition Percentage (GI %)
ACHN = test: NCI-60 anticancer screening (SRB); format: cell-based; details: Homo sapiens, renal cancer, one dose 10 μM, read-out: Growth Inhibition Percentage (GI %)
RXF 393 = test: NCI-60 anticancer screening (SRB); format: cell-based; details: Homo sapiens; RXF 393, renal cancer; one dose 10 μM; read-out: Growth Inhibition Percentage (GI %)
T-47D = test: NCI-60 anticancer screening (SRB); format: cell-based; details: Homo sapiens, T47D, breast cancer, one dose 10 μM, read-out: Growth Inhibition Percentage (GI %)
MDA-MB-468 = test: NCI-60 anticancer screening (SRB); format: cell-based; details: Homo sapiens; MDA-MB-468, breast cancer; one dose 10 μM; read-out: Growth Inhibition Percentage (GI %)

**Q.** Which inhibition at 10 µM (HL-60(TB)) does the source give for CCOC(=O)C1=C(N)N(c2ccc(C)cc2)C2=C(C(=O)CC(C)(C)C2)C1c1ccccc1Cl (racemic) [6b, (±)-Ethyl 2-amino-4–(2-chlorophenyl)-7,7-dimethyl-1–(4-methylphenyl)-5-oxo-1,4,5,6,7,8-hexahydroquinoline-3-carboxylate] here?
**A.** < 10%

**Q.** And the inhibition at 10 µM (K-562)?
**A.** < 10%

**Q.** And the inhibition at 10 µM (MOLT-4)?
**A.** < 10%

**Q.** And the inhibition at 10 µM (RPMI-8226)?
**A.** 22%

**Q.** And the inhibition at 10 µM (SR)?
**A.** < 10%

**Q.** What about the inhibition at 10 µM (A549/ATCC) of the same compound?
**A.** 13%

**Q.** What about the inhibition at 10 µM (HOP-62) of the same compound?
**A.** < 10%

**Q.** And the inhibition at 10 µM (NCI-H226)?
**A.** < 10%

**Q.** And the inhibition at 10 µM (NCI-H322M)?
**A.** < 10%

**Q.** What about the inhibition at 10 µM (NCI-H522) of the same compound?
**A.** 17%

**Q.** And the inhibition at 10 µM (HCC-2998)?
**A.** < 10%

**Q.** What about the inhibition at 10 µM (HCT-15) of the same compound?
**A.** 30%

**Q.** What about the inhibition at 10 µM (KM 12) of the same compound?
**A.** < 10%

**Q.** What about the inhibition at 10 µM (SW-620) of the same compound?
**A.** 19%

**Q.** And the inhibition at 10 µM (SF-268)?
**A.** < 10%

**Q.** What about the inhibition at 10 µM (SNB-19) of the same compound?
**A.** 12%

**Q.** And the inhibition at 10 µM (SNB-75)?
**A.** 29%

**Q.** And the inhibition at 10 µM (LOX IMVI)?
**A.** < 10%

**Q.** What about the inhibition at 10 µM (MDA-MB-435) of the same compound?
**A.** < 10%

**Q.** What about the inhibition at 10 µM (SK-MEL-2) of the same compound?
**A.** < 10%

**Q.** And the inhibition at 10 µM (SK-MEL-5)?
**A.** 17%

**Q.** What about the inhibition at 10 µM (UACC-257) of the same compound?
**A.** < 10%

**Q.** And the inhibition at 10 µM (OVCAR-3)?
**A.** 17%

**Q.** And the inhibition at 10 µM (OVCAR-4)?
**A.** < 10%

**Q.** And the inhibition at 10 µM (OVCAR-5)?
**A.** < 10%

**Q.** What about the inhibition at 10 µM (OVCAR-8) of the same compound?
**A.** 20%

**Q.** What about the inhibition at 10 µM (SK-OV-3) of the same compound?
**A.** < 10%

**Q.** What about the inhibition at 10 µM (ACHN) of the same compound?
**A.** < 10%

**Q.** What about the inhibition at 10 µM (RXF 393) of the same compound?
**A.** < 10%

**Q.** And the inhibition at 10 µM (T-47D)?
**A.** 21%

**Q.** What about the inhibition at 10 µM (MDA-MB-468) of the same compound?
**A.** 20%

**Q.** And the melting point?
**A.** 240 to 242 °C

**Q.** What does the source list for CCOC(=O)C1=C(N)N(c2ccccc2)C2=C(C(=O)CC(C)(C)C2)C1c1ccc(F)cc1 (racemic) [8a, (±)-Ethyl 2-amino-4–(4-fluorophenyl)-7,7-dimethyl-5-oxo-1-phenyl-1,4,5,6,7,8-hexahydroquinoline-3-carboxylate]?
**A.** inhibition at 10 µM (HL-60(TB)): < 10%; inhibition at 10 µM (K-562): < 10%; inhibition at 10 µM (MOLT-4): < 10%; inhibition at 10 µM (RPMI-8226): < 10%; inhibition at 10 µM (SR): < 10%; inhibition at 10 µM (A549/ATCC): < 10%; inhibition at 10 µM (HOP-62): < 10%; inhibition at 10 µM (NCI-H226): < 10%; inhibition at 10 µM (NCI-H322M): < 10%; inhibition at 10 µM (NCI-H522): < 10%; inhibition at 10 µM (HCC-2998): < 10%; inhibition at 10 µM (HCT-15): < 10%; inhibition at 10 µM (KM 12): < 10%; inhibition at 10 µM (SW-620): < 10%; inhibition at 10 µM (SF-268): < 10%; inhibition at 10 µM (SNB-19): < 10%; inhibition at 10 µM (SNB-75): < 10%; inhibition at 10 µM (LOX IMVI): < 10%; inhibition at 10 µM (MDA-MB-435): < 10%; inhibition at 10 µM (SK-MEL-2): < 10%; inhibition at 10 µM (SK-MEL-5): < 10%; inhibition at 10 µM (UACC-257): < 10%; inhibition at 10 µM (OVCAR-3): < 10%; inhibition at 10 µM (OVCAR-4): < 10%; inhibition at 10 µM (OVCAR-5): < 10%; inhibition at 10 µM (OVCAR-8): < 10%; inhibition at 10 µM (SK-OV-3): < 10%; inhibition at 10 µM (ACHN): < 10%; inhibition at 10 µM (RXF 393): < 10%; inhibition at 10 µM (T-47D): < 10%; inhibition at 10 µM (MDA-MB-468): < 10%; melting point: 215 to 217 °C
